Read-outs that look alike come from different tables or passages of the source.
What was measured:
[1] = Stability of isomers on heating and storage by 1H NMR; type: physicochemical; settings: solution of [EuL2A]− and [EuL2B]− at 1:0.25, 90° C. for 3 days
Description: (§1) In aqueous solution, the ratio of TSA/SA isomers of Eu(III) and Yb(III) complexes in DOTA-like systems can be easily determined by ^1H NMR as two well-defined sets of six resonances are observed for the diastereotopic protons in CH2CO and NCH2CH2N.^13 Although the Gd(III) complexes cannot be analyzed by NMR, their ratio of isomers are expected to be similar to those of the Eu(III) and Yb(III) complexes because the ionic radius of Gd(III) is similar to the ionic radius of Eu(III) and Yb(III).
(§2) The conformational properties of the lanthanide complexes were investigated by both HPLC and NMR spectroscopy. The ^1H NMR spectra of the four europium chiral DOTA-based complexes are compared in FIG. 3. […] In the cases of [EuL3]^− and [EuL4]^−, the twisted antiprismatic isomers were more dominant, with the ratio of 6.52 for [EuL3]^− and 13.50 for [EuL4]^− observed.
The stability of the complexes toward racemization over time was also monitored by ^1H NMR (FIG. 20). […] Nevertheless, the original set of peaks existed predominately when the pD was adjusted from 6.0 to 7.5 and further heated for 12 h at 90° C. It can be observed that while the purity of the ligands may not be highly satisfactory, pure complexes could be obtained by HPLC separation after complexation. This phenomenon indicates the purification of DOTA-based ligands should be handled with care.

[2] = TSA/SA isomer ratio of lanthanide complexes by 1H NMR; type: physicochemical; settings: 25° C., 400 MHz, pD 7.0, aqueous solution
Description: as §1, §2
The ratio of TSA/SA isomers for [YbL1]^− (0.28) and [YbL2]^− (0.93) was relatively lower than that of the europium analogues. The ratio change from [YbL2]^− to [YbL3]^− was also not as apparent.

[3] = amine bond, 12-membered ring
[4] = Relaxivity (r1, r2) measurement of Gd(III) complexes in water, BSA and human plasma; type: physicochemical; parameters: r1 Human Plasma (1.5 T): unit not given beside the values; settings: 1.5 T, 37° C.
Protocol: This is very important because the huge difference in the inner-sphere coordinated water exchange rate between the two isomers is a key factor for applications, for example, as MRI contrast agents. To show their potential value, the two diastereomers of [GdL2]^− ([GdL2A]^− and [GdL2B]^−) were separated and their relaxivities were measured. The relaxivities of [GdL1]^−, [GdL2]^−, [GdL2A]^−, [GdL2B]^− and [GdDOTA]^− in water at different magnetic strengths (1.5 T and 11.7 T) were compared, with or without the presence of BSA and human plasma (1.5 T) (Table 1). It is clearly seen that the complexes of [GdL1]^−, [GdL2A]^− and [GdL2B]^− have relaxivity properties similar to that of the [GdDOTA]^− complex.

[5] = Absorption and photoluminescence (quantum yield, lifetime, q); type: physicochemical; parameters: λabs(max): unit not given here; settings: listed as 12a
Protocol: (§3) Absorption spectra of complexes were measured with HP UV-8453 spectrophotometer. Steady-state room temperature photoluminescence measurements were performed with an Edinburgh Instrument FLSP920 spectrophotometer equipped with a Xe900 continuous xenon lamp, μF920 microsecond flash lamp and a single photon counting photomultiplier tube. Spectra were corrected with the bundled F900 software. Solution-state measurements were conducted using quartz curettes of 10 mm path length. CPL measurements were conducted on a custom built spectrometer^63 (in Durham University) consisting of a laser driven light source (Energetiq EQ-99 LDLS, spectral range 170 to 2100 nm) coupled to an Acton SP2150 monochromator (600 g/nm, 300 nm Blaze) that allows excitation wavelengths to be selected with a 6 nm FWHM band-pass. The collection of the emitted light was facilitated (90° angle set up, 1 cm path length quartz curette) by a Lock-In Amplifier (Hinds Instruments Signaloc 2100) and Photoelastic Modulator (Hinds Instruments PEM-90). The differentiated light was focused onto an Acton SP2150 monochromator (1200 g/nm, 500 nm Blaze) equipped with a high sensitivity cooled Photo Multiplier Tube (H10723-20 Extended red-multialkali PMT based photosensor (5V)). Spectra were recorded using a 5 spectral average sequence in the range of 570-720 nm with 0.5 nm spectral intervals and 500 μs integration time. The recorded CPL spectrum underwent a 25% Fourier transformation smoothening protocol using Origin 8.0 Software (Origin Labs) to enhance appearance (all calculations were carried out using raw spectral data).
The shift in absorption is caused by electronic communication between the electropositive lanthanide center and the chromophore. […] These are not observed for 11, however, as we believe the steric effect of the planar phenyl ring of the benzyl group could not be alleviated by appropriate rotation, whereas that of the isobutyl group could.
The luminescence quantum yields of the complexes are decent in water and HEPES solution, although they are much higher in DMSO, due to the nonradiative quenching by O—H oscillators of water molecules in the second coordination sphere (Table 6). The intrinsic quantum yields^61—a calculated value evaluating the quantum yield of Eu(III) via direct metal excitation—of the complexes are calculated, and, as expected, the values are very similar, except for 10. The higher value corroborates with the shift in absorption maximum, for which we believe the reason is due to a shorter europium—chromophore distance and better interaction. On the other hand, the sensitization efficiencies of the complexes vary. […] The relatively remarkable ηsens of 13 is attributed to its structural rigidity, as both the tetraaza backbone and the acetate arms are modified with a chrial substituent, i.e., double chirality. The double chirality is also attributed for the increase in luminescence quantum yield compared to that of 12a/12b.

[6] = Circularly polarized luminescence (CPL), dissymmetry factor glum; type: physicochemical; settings: wavelength in parentheses in the cell, listed as 12a
Protocol: as §3, with “Steady-state” for “Absorption spectra of complexes were measured with HP UV-8453 spectrophotometer. Steady-state”, “time.” for “time. The recorded CPL spectrum underwent a 25% Fourier transformation smoothening protocol using Origin 8.0 Software (Origin Labs) to enhance appearance (all calculations were carried out using raw spectral data).”

CC[C@H]1CN(CC(=O)[O-])[C@@H](CC)CN(CC(=O)[O-])[C@@H](CC)CN(CC(=O)[O-])[C@@H](CC)CN1CC(=O)[O-].[Eu+3] (single isomer, unassigned) [[EuL2B]^−]
isomer ratio after heating (lack of racemization) [1]: remained at the same ratio

CC(C)C[C@H]1CN(CC(=O)[O-])[C@@H](CC(C)C)CN(CC(=O)[O-])[C@@H](CC(C)C)CN(CC(=O)[O-])[C@@H](CC(C)C)CN1CC(=O)[O-].[Eu+3] [[EuL3]^−]
isomer ratio of TSA/SA [2]: 6.52

CC[C@H]1CN(Cc2ccccc2)[C@@H](CC)CN(Cc2ccccc2)[C@@H](CC)CN(Cc2ccccc2)[C@@H](CC)CN1Cc1ccccc1
ring closure, isolated yield [3]: 27.5%

CC[C@H]1CN(CC(=O)[O-])[C@@H](CC)CN(CC(=O)[O-])[C@@H](CC)CN(CC(=O)[O-])[C@@H](CC)CN1CC(=O)[O-].[Gd+3] (single isomer, unassigned) [[GdL2A]^−]
r1 4.5 w/v BSA (1.5 T) [4]: 3.9 | r1 Human Plasma (1.5 T) [4]: 2.9 | r1 Water (1.5 T) [4]: 3.0

CC[C@H]1CN(CC(=O)[O-])[C@@H](CC)CN(CC(=O)[O-])[C@@H](CC)CN(CC(=O)[O-])[C@@H](CC)CN1CC(=O)[O-].[Yb+3] [[YbL2]^−]
isomer ratio of TSA/SA [2]: 0.93

O=C([O-])CN1CCN(CC(=O)[O-])CCN(CC(=O)[O-])CCN(CC(=O)[O-])CC1.[Gd+3] [[GdDOTA]^−, reference compound]
r1 4.5 w/v BSA (1.5 T) [4]: 4.1 | r1 Human Plasma (1.5 T) [4]: 4.0 | r1 Water (1.5 T) [4]: 3.2

O=C([O-])CN1CC(Cc2ccccc2)N(CC(=O)[O-])CC(Cc2ccccc2)N(CC(=O)[O-])CC(Cc2ccccc2)N(CC(=O)[O-])CC1Cc1ccccc1.[Eu+3] (stereo not shown) [[EuL4]^−]
isomer ratio of TSA/SA [2]: 13.50

O=[N+]([O-])c1ccc(C[C@H]2CN(Cc3ccccc3)[C@@H](Cc3ccc([N+](=O)[O-])cc3)CN(Cc3ccccc3)[C@@H](Cc3ccc([N+](=O)[O-])cc3)CN(Cc3ccccc3)[C@@H](Cc3ccc([N+](=O)[O-])cc3)CN2Cc2ccccc2)cc1
ring closure, isolated yield ([3]; from O=[N+]([O-])c1ccc(CC2C[N@@]2Cc2ccccc2)cc1, TsOH.H2O, MeCN, 84.7 mM, 25.0 °C): 20.6%

C[C@H]1CN(CC(=O)[O-])[C@@H](C)CN(CC(=O)[O-])[C@@H](C)CN(CC(=O)[O-])[C@@H](C)CN1CC(=O)[O-].[Eu+3] [[EuL1]^−]
isomer ratio of TSA/SA [2]: 0.75

c1ccc(C[C@H]2CN(Cc3ccccc3)[C@@H](Cc3ccccc3)CN(Cc3ccccc3)[C@@H](Cc3ccccc3)CN(Cc3ccccc3)[C@@H](Cc3ccccc3)CN2Cc2ccccc2)cc1
ring closure, isolated yield [3]: 25%

CC(C)(C)OC(=O)NCCCC[C@H]1CN(Cc2ccccc2)[C@@H](CCCCNC(=O)OC(C)(C)C)CN(Cc2ccccc2)[C@@H](CCCCNC(=O)OC(C)(C)C)CN(Cc2ccccc2)[C@@H](CCCCNC(=O)OC(C)(C)C)CN1Cc1ccccc1
ring closure, isolated yield ([3]; from CC(C)(C)OC(=O)NCCCCC1C[N@@]1Cc1ccccc1, TsOH.H2O, MeCN, 82.1 mM, 25.0 °C): 24.5%

CC[C@H]1CN(CC(=O)[O-])[C@@H](CC)CN(CC(=O)[O-])[C@@H](CC)CN(CC(=O)[O-])[C@@H](CC)CN1CC(=O)[O-].[Gd+3] (single isomer, unassigned) [[GdL2B]^−]
r1 4.5 w/v BSA (1.5 T) [4]: 3.6 | r1 Human Plasma (1.5 T) [4]: 3.5 | r1 Water (1.5 T) [4]: 3.0

CC[C@H]1CN(CC(=O)[O-])[C@@H](CC)CN(CC(=O)[O-])[C@@H](CC)CN(CC(=O)[O-])[C@@H](CC)CN1CC(=O)[O-].[Eu+3] [[EuL2]^−]
isomer ratio of TSA/SA [2]: 1.27

O=C([O-])CN1CC(Cc2ccccc2)N(CC(=O)[O-])CC(Cc2ccccc2)N(CC(=O)[O-])CC(Cc2ccccc2)N(CC(=O)[O-])CC1Cc1ccccc1.[Yb+3] (stereo not shown) [[YbL4]^−]
isomer ratio of TSA/SA [2]: essentially one TSA isomer

C[C@H]1CN(CC(=O)[O-])[C@@H](C)CN(CC(=O)[O-])[C@@H](C)CN(CC(=O)[O-])[C@@H](C)CN1CC(=O)[O-].[Yb+3] [[YbL1]^−]
isomer ratio of TSA/SA [2]: 0.28

COc1cc(OC)c(C#Cc2cc(CN3CCN(C(C)C(=O)[O-])CCN(C(C)C(=O)[O-])CCN(C(C)C(=O)[O-])CC3)nc(P(C)(=O)[O-])c2)c(OC)c1.[Eu+3] (single isomer, unassigned) [Complex 12a]
R, I(5D0 → 7F2)/I(5D0 → 7F1) ([5]; asymmetry ratio, room temperature, 10 in MeOH, 11 in DMSO): 2.74 | q (Parker's) ([5]; from lifetimes in H2O and D2O, first value of cell): 0.07 | q (Horrocks') ([5]; from lifetimes in H2O and D2O, second value of cell): 0.01 | ΦEuEu (%) ([5]; intrinsic quantum yield, calculated value): 26.6% | τD2O/MeOD ([5]; luminescence lifetime, 5D0 → 7F2 transition, D2O (MeOD for 10)): 1.70 ms | τH2O/MeOH ([5]; luminescence lifetime, 5D0 → 7F2 transition, H2O (MeOH for 10)): 1.12 ms | ΦDMSO (%) ([5]; luminescence quantum yield in DMSO): 46.4% | ΦH2O/MeOH (%) ([5]; luminescence quantum yield relative to quinine sulfate in 0.1M H2SO4, H2O (MeOH for 10, insoluble in H2O)): 12.7% | ΦHEPES (%) ([5]; luminescence quantum yield, 0.1M HEPES buffer, pH 7.4): 12.4% | λabs(max) ([5]; room temperature, 10 measured in MeOH, 11 in DMSO): 352 | ηsens (%) ([5]; sensitization efficiency, calculated according to ref 61): 47.0% | glum ΔJ = 1 (λ) DMSO ([6]; DMSO): −0.04 (591) | glum ΔJ = 3 (λ) DMSO ([6]; DMSO): −0.04 (657) | glum ΔJ = 1 (λ) H2O ([6]; H2O): −0.03 (588) | glum ΔJ = 3 (λ) H2O ([6]; H2O): −0.05 (653)

CC(C)C[C@H]1CN(Cc2ccccc2)[C@@H](CC(C)C)CN(Cc2ccccc2)[C@@H](CC(C)C)CN(Cc2ccccc2)[C@@H](CC(C)C)CN1Cc1ccccc1
ring closure, isolated yield [3]: 28.3%

Source: patent US11357873B2, “Chiral cyclen compounds and their uses” (THE HONG KONG POLYTECHNIC UNIVERSITY, priority 2016, dated 2022)
